From patent publication US20140037792A1, “Isolated microorganism strains Lactobacillus plantarum MCC1 DSM 23881 and Lactobacillus gasseri MCC2 DSM 23882 and their use” (Bio-Competence Centre of Healthy Dairy Products, priority 2011, published 2014)
In brackets after ≈: the same amount, converted by molar mass. Like-named read-outs stand apart in the source and are kept apart here.

Columns and labels:
[1] = test system: L. plantarum MCC1 DSM 23881; experiment: Antibiotic susceptibility, E-test; assay type: cell-based; conditions: for resistance of L. plantarum MCC1 to the antibiotic: according to European Commission indicators for lactobacilli
Experimental: (§1) Methodology: The susceptibility of L. plantarum MCC1 and L. gasseri MCC2 to antibiotics was tested with the help of E-test (AB Biodisk, Solna). The minimum inhibitory concentration was determined according to the epidemiological breakpoints recommended by the European Commission.

Lactobacillus spp = conditions: European Commission 2002; cited from earlier work
[2] = test system: Obligately homofermentative lactobacilli (OHOL); conditions: FEEDAP Panel EFSA 2008; cited from earlier work
[3] = test system: L. gasseri MCC2 DSM 23882; experiment: Antibiotic susceptibility, E-test; assay type: cell-based
Experimental: as §1

L. plantarum = conditions: FEEDAP Panel EFSA 2008; cited from earlier work
[4] = Lactiplantibacillus plantarum, DSM23881, read-out: MIC
[5] = Lactobacillus gasseri, DSM23882, read-out: MIC
[6] = Lactiplantibacillus plantarum, DSM23881
[7] = E-test, against L. plantarum MCC1
[8] = E-test, against L. gasseri MCC2

Row | Compound | MIC [1, 4] [µg/mL] | MIC breakpoint for resistance, Lactobacillus spp (Lactobacillus spp) [µg/mL] | MIC breakpoint for resistance, OHOL [2] [µg/mL] | MIC [3, 5] [µg/mL] | MIC breakpoint for resistance, L. plantarum (L. plantarum) [µg/mL] | further results
1 | CCC[C@@H]1C[C@@H](C(=O)N[C@@H]([C@H]2O[C@H](SC)[C@H](O)[C@@H](O)[C@H]2O)[C@H](C)Cl)N(C)C1 [Clindamycin] | 0.064 (≈ 0.151 µM) | – | – | – | – | –
2 | [H]/N=C(/N)N[C@H]1[C@H](O)[C@@H](O)[C@H](O[C@@H]2O[C@@H](C)[C@](O)(C=O)[C@H]2O[C@@H]2O[C@@H](CO)[C@H](O)[C@@H](O)[C@@H]2NC)[C@@H](N/C(N)=N\[H])[C@@H]1O [Streptomycin] | 16 (≈ 27.5 µM) | 16 | 16 | – | – | –
3 | O=C(O)c1cn(C2CC2)c2cc(N3CCNCC3)c(F)cc2c1=O [Ciprofloxacin] | 0.38 (≈ 1.15 µM) | 4 | – | > 32 | – | –
4 | CN[C@H](CC(C)C)C(=O)N[C@H]1C(=O)N[C@@H](CC(N)=O)C(=O)N[C@H]2C(=O)N[C@H]3C(=O)N[C@H](C(=O)N[C@H](C(=O)O)c4cc(O)cc(O)c4-c4cc3ccc4O)[C@H](O)c3ccc(c(Cl)c3)Oc3cc2cc(c3O[C@@H]2O[C@H](CO)[C@@H](O)[C@H](O)[C@H]2O[C@H]2C[C@](C)(N)[C@H](O)[C@H](C)O2)Oc2ccc(cc2Cl)[C@H]1O [Vancomycin] | – | 4 | 2 | – | – | MIC [1, 6]: 256 µg/mL (≈ 177 µM); resistance of L. plantarum MCC1 to the antibiotic [1]: resistant; MIC ([3]; Lactobacillus gasseri, DSM23882): 0.75 µg/mL (≈ 0.518 µM)
5 | CC[C@H]1OC(=O)[C@H](C)[C@@H](O[C@H]2C[C@@](C)(OC)[C@@H](O)[C@H](C)O2)[C@H](C)[C@@H](O[C@@H]2O[C@H](C)C[C@H](N(C)C)[C@H]2O)[C@](C)(O)C[C@@H](C)C(=O)[C@H](C)[C@@H](O)[C@]1(C)O [Erythromycin] | – | 4 | 1 | 0.047 (≈ 0.064 µM) | 1 | MIC [1, 6]: 0.125 µg/mL (≈ 0.17 µM)
6 | CC1(C)S[C@@H]2[C@H](NC(=O)[C@H](N)c3ccccc3)C(=O)N2[C@H]1C(=O)O [Ampicillin] | 0.094 (≈ 0.269 µM) | 2 | 1 | 0.031 (≈ 0.0887 µM) | 2 | –
7 | CO/N=C(\C(=O)N[C@@H]1C(=O)N2C(C(=O)O)=C(COC(N)=O)CS[C@H]12)c1ccco1 [Cefuroxim] | 0.5 (≈ 1.18 µM) | – | – | 0.19 (≈ 0.448 µM) | – | –
8 | CO[C@@]1(NC(=O)Cc2cccs2)C(=O)N2C(C(=O)O)=C(COC(N)=O)CS[C@@H]21 [Cefoxitin] | 256 (≈ 599 µM) | 4 | – | 1.5 (≈ 3.51 µM) | – | resistance of L. plantarum MCC1 to the antibiotic [1]: resistant
9 | O=C(N[C@H](CO)[C@H](O)c1ccc([N+](=O)[O-])cc1)C(Cl)Cl [Chloramphenicol] | 1.5 (≈ 4.64 µM) | 16 | 4 | 0.75 (≈ 2.32 µM) | 8 | –
10 | CN(C)[C@@H]1C(O)=C(C(N)=O)C(=O)[C@@]2(O)C(O)=C3C(=O)c4c(O)cccc4[C@@](C)(O)[C@H]3C[C@@H]12 [Tetracycline] | 2 (≈ 4.5 µM) | – | – | 0.5 (≈ 1.13 µM) | – | –
11 | Quinupristin/dalfopristin | – | 4 | 4 | – | 4 | MIC [1, 7]: 1 µg/mL
12 | Trim/sulfam | – | 32 | – | – | – | MIC [3, 8]: >32 µg/mL
13 | CO[C@H]1/C=C/O[C@@]2(C)Oc3c(C)c(O)c4c(O)c(c(/C=N/N5CCN(C)CC5)c(O)c4c3C2=O)NC(=O)/C(C)=C\C=C\[C@H](C)[C@H](O)[C@@H](C)[C@@H](O)[C@@H](C)[C@H](OC(C)=O)[C@@H]1C [Rifampin] | – | 32 | – | 0.064 (≈ 0.0778 µM) | – | –
14 | Gentamicin | – | 1 | 16 | – | 16 | MIC [1, 7]: 1.5 µg/mL; MIC [3, 8]: 2 µg/mL
15 | C[C@@H](O)[C@H]1C(=O)N2C(C(=O)O)=C(SCCN=CN)C[C@H]12 [Imipenem] | – | – | – | 0.047 (≈ 0.157 µM) | – | –
